Blank lines part the entries; values can stand above or below the molecule they belong to.
Tests used:
[1] = target: T1, Solute carrier organic anion transporter family member 1A4 (Rattus norvegicus, UniProt O35913); assay: TP_TRANSPORTER: inhibition of Taurocholate uptake (Taurochorate: 1 uM, BSP: 200 uM, data not shown) in Xenopus laevis oocytes; assay type: functional, cell-based; conditions: oocyte
T1 sequence (O35913 whole entry): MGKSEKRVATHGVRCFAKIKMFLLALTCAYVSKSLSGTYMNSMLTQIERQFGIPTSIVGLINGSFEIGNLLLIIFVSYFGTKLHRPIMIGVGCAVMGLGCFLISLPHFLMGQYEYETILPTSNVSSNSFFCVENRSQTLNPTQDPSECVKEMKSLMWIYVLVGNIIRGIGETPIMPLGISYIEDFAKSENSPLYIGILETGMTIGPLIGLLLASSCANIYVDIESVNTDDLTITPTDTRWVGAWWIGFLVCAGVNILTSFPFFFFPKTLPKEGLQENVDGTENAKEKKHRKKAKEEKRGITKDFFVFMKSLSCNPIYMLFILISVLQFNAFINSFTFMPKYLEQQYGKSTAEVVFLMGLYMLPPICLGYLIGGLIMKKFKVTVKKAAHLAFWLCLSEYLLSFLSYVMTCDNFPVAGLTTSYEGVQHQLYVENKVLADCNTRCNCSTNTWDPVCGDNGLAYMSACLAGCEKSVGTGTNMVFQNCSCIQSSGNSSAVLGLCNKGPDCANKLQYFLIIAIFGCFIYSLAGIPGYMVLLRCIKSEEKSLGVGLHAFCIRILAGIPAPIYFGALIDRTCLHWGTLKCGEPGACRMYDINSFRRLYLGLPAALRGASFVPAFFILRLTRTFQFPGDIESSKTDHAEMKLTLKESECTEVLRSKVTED

[2] = target: T1, Solute carrier organic anion transporter family member 1A4; assay: TP_TRANSPORTER: inhibition of Taurocholate uptake (Taurochorate: 1 uM, E217betaG: 200 uM, data not shown) in Xenopus laevis oocytes; assay type: functional, cell-based; conditions: oocyte
[3] = target: T1, Solute carrier organic anion transporter family member 1A4; assay: TP_TRANSPORTER: inhibition of Taurocholate uptake (Taurochorate: 1 uM, T3: 200 uM, data not shown) in Xenopus laevis oocytes; assay type: functional, cell-based; conditions: oocyte
[4] = target: T1, Solute carrier organic anion transporter family member 1A4; assay: TP_TRANSPORTER: inhibition of Taurocholate uptake (Taurochorate: 1 uM, T4: 200 uM, data not shown) in Xenopus laevis oocytes; assay type: functional, cell-based; conditions: oocyte
[5] = substrate: N[C@@H](Cc1cc(I)c(Oc2cc(I)c(O)c(I)c2)c(I)c1)C(=O)O; assay: (§1) TP_TRANSPORTER: uptake in Xenopus laevis oocytes; assay type: functional, cell-based, Oocyte
[6] = substrate: N[C@@H](Cc1cc(I)c(Oc2ccc(O)c(I)c2)c(I)c1)C(=O)O; assay: as §1; assay type: functional, cell-based, Oocyte

Molecule: O=C1OC(c2ccc(O)c(S(=O)(=O)[O-])c2)(c2ccc(O)c(S(=O)(=O)[O-])c2)c2c(Br)c(Br)c(Br)c(Br)c21.[Na+].[Na+] [SULFOBROMOPHTHALEIN SODIUM]
- Activity [1]: inhibitor [+]

Molecule: C[C@]12CC[C@@H]3c4ccc(O)cc4CC[C@H]3[C@@H]1CC[C@@H]2O[C@@H]1O[C@H](C(=O)O)[C@@H](O)[C@H](O)[C@H]1O [ESTRADIOL 17B GLUCURONIDE]
- Activity [2]: inhibitor [+]

- Activity [3]: inhibitor [+]
Molecule: N[C@@H](Cc1cc(I)c(Oc2ccc(O)c(I)c2)c(I)c1)C(=O)O [LIOTHYRONINE]

- Activity [4]: inhibitor [+]
Molecule: N[C@@H](Cc1cc(I)c(Oc2cc(I)c(O)c(I)c2)c(I)c1)C(=O)O [LEVOTHYROXINE]

B1: Solute carrier organic anion transporter family member 1A5 (Rattus norvegicus) (protein)
chain: MGETEKRVATHEVRCFSKIKMFLLALTWAYVSKSLSGIYMNTMLTQIERQFDIPTSIVGFINGSFEIGNLLLIIFVSYFGTKLHRPIMIGVGCVIMGLGCFLMSLPHFLMGRYEYETTISPTSNLSSNSFLCMENRSQTLKPTQDPAECIKEMKSLMWIYVLVGNIIRGIGETPIMPLGISYIEDFAKSENSPLYIGILETGKVFGPIVGLLLGSFCASIYVDTGSVNTDDLTITPTDTRWVGAWWIGFLICAGVNILSSIPFFFFPKTLPKEGLQDDVDGTNNDKEEKHREKAKEENRGITKDFLPFMKSLSCNPIYMLLILTSVLQINAFINMFTFLPKYLEQQYGKSTAEVVLLIGVYNLPPICIGYLLIGFIMKKFKITVKKAAYMAFCLSLFEYLLYFLHFMITCDNFPVAGLTASYEGVHHPLYVENKVLADCNRGCSCSTNSWDPVCGDNGLAYMSACLAGCKKSVGTGTNMVFQNCSCIRSSGNSSAVLGLCKKGPECANKLQYFLIMSVIGSFIYSITAIPGYMVLLRCIKPEEKSLGIGLHAFCTRVFAGIPAPIYFGALIDRTCLHWGTLKCGEPGACRMYNINNFRRIYLVLPAALRGSSYLPALFILILMRKFQFPGEIDSSETELAEMKITVKKSECTDVHGSPQVENDGELKTRL
- Km [5]: 4.93 µM
- Km [6]: 7.33 µM

B2: Solute carrier organic anion transporter family member 1A4 (Rattus norvegicus) (protein)
chain: T1 sequence (O35913 whole entry)
- Km [5]: 6.53 µM
- Km [6]: 5.87 µM

From ChEMBL document CHEMBL2074037, “Molecular characterization and tissue distribution of a new organic anion transporter subtype (oatp3) that transports thyroid hormones and taurocholate and comparison with oatp2” (J Biol Chem, 1998)
